Reference: patent US4880841A, “Process of producing phenethylamine derivatives” (Yamanouchi Pharmaceutical Co., Ltd., priority 1980, dated 1989)
Like-named read-outs stand apart in the source and are kept apart here.

What was measured:
α-adrenergic = assay: α-Adrenergic blocking action: antagonism of the hypertensive response to phenylephrine in anesthetized rats; assay type: in vivo; details: Rattus norvegicus, iv, read-out: α-blocking activity (rat) ED50 (mg/kg) i.v.
Method: (§1) The pharmacological effects of the compounds of this invention were determined by the following experiments. The effects of the typical compounds of this invention were compared with those of 5-{1-hydroxy-2-[2-(2-methoxyphenoxy)ethylamino]ethyl}-2-methylbenzenesulfonamide (referred to as "Compound A") which is one of the typical compounds disclosed in British Pat. No. 2,006,772 and phentolamine.
A. α-Adrenergic blocking action:
The blood pressure was measured in the rats anesthetized with urethane and treated with pentolinium. The effects of the test samples (intravenous injection) to antagonize the hypertensive response to phenylephrine (10 μg/Kg i.v.) were measured and the results were shown in Table I.

[1] = Antihypertensive effects in spontaneously hypertensive rats (oral administration, tail cuff method); assay type: in vivo; details: 30 mg/kg P.O., spontaneously hypertensive rats with systolic blood pressure higher than 150 mmHg
Method: as §1
B. Antihypertensive effects in spontaneously hypertensive rats:
Oral administration:--The systolic blood pressure was measured indirectly by the tail cuff method using a programmed electrosphygmanometer (Nacro-Bio-Systems Inc., PE-300) on spontaneously hypertensive rats having the systolic blood pressure of higher than 150 mmHg, the results being shown in Table II.

[2] = rats anesthetized with urethane and treated with pentolinium, i.v. test sample, phenylephrine 10 μg/Kg i.v.

Row | SMILES | ED50 (α-adrenergic; [2]) | change in systolic blood pressure (mm Hg) at stated dose P.O. [1] | ED50 (α-adrenergic)
1 | Cc1ccc(N(CC2=NCCN2)c2cccc(O)c2)cc1 [phentolamine, reference compound] | 0.061 mg/kg | -53 mm Hg | 
2 | COc1ccccc1OCCNCC(O)c1ccc(C)c([S+](C)[O-])c1.O=C(O)C(=O)O (stereo not drawn) [Example 5, α-{[2-(2-Methoxyphenoxy)ethylamino]methyl}-4-methyl-3-methylsulfinylbenzenemethanol oxalate] | 0.045 mg/kg | -60 mm Hg | 
3 | CCOc1ccccc1OCCNC(C)Cc1ccc(OC)c(SC)c1.Cl (stereo not shown) [Example 8, 4-{2-[2-(2-Ethoxyphenoxy)ethylamino]-2-methylethyl}-2-(methylthio)anisole hydrochloride] |  | -48 mm Hg | 0.0019 mg/kg
4 | CCOc1ccccc1OCCNC(C)Cc1ccc(OC)c(S(C)(=O)=O)c1.Cl (stereo not shown) [Example 12, 4-{2-[2-(2-Ethoxyphenoxy)ethylamino]-2-methylethyl}-2-(methylsulfonyl)anisole hydrochloride] |  | -58 mm Hg | 0.00014 mg/kg
5 | COc1ccccc1OCCNCC(O)c1ccc(C)c(S(N)(=O)=O)c1 (stereo not shown) [Compound A, 5-{1-hydroxy-2-[2-(2-methoxyphenoxy)ethylamino]ethyl}-2-methylbenzenesulfonamide, reference compound] | 0.032 mg/kg | -30 mm Hg | 
